Key:
[1] = tested on: HT-29; assay: Cytotoxicity against human HT-29 cells after 3 days by MTS assay; type: functional, cell-based; conditions: HT-29, 72 h
[2] = tested on: HepG2; assay: Cytotoxicity against human HepG2 cells after 3 days by MTS assay; type: functional, cell-based; conditions: HepG2, 72 h
[3] = tested on: MCF7; assay: Cytotoxicity against human MCF7 cells after 3 days by MTS assay; type: functional, cell-based; conditions: MCF7, 72 h
[4] = tested on: Nucleic Acid; assay: Binding affinity to Sheared herring sperm DNA assessed as remaining displaced EtBr by fluorescent intercalator displacement assay; type: nucleic-acid assay; set-up: concentration or dose not given beside the values
[5] = tested on: MCF7; assay: Cytotoxicity against human MCF7 cells at 25 µM after 3 days by MTS assay; conditions: MCF7, 72 h
[6] = tested on: HT-29; assay: Cytotoxicity against human HT-29 cells assessed as cell viability at 25 uM after 3 days by MTS assay; type: functional; conditions: HT-29, 72 h, read-out: Activity
[7] = tested on: HepG2; assay: Cytotoxicity against human HepG2 cells assessed as cell viability at 25 uM after 3 days by MTS assay; type: functional; conditions: HepG2, 72 h, read-out: Activity
[8] = tested on: MCF7; assay: Cytotoxicity against human MCF7 cells assessed as cell viability at 25 uM after 3 days by MTS assay; type: functional; conditions: MCF7, 72 h, read-out: Activity

| SMILES | IC50 [1] | IC50 [2] | IC50 [3] | Activity [4] | cell viability at 25 µM [5] | viability at 25 µM [6] | viability at 25 µM [7] | viability at 25 µM [8] |
| --- | --- | --- | --- | --- | --- | --- | --- | --- |
| CCCCN(CCCC)[C@H]1CC[C@H](OCC#Cc2c(-c3ccccc3)oc3ccccc23)O[C@H]1C | > 25 µM | > 25 µM | > 25 µM |  |  |  |  |  |
| CCCCCCN[C@H]1CC[C@H](OCC#Cc2c(-c3ccccc3)sc3ccccc23)O[C@H]1C | 5.1 µM | 19.1 µM | 6.8 µM |  |  |  |  |  |
| C[C@@H]1O[C@@H](OCC#Cc2c(-c3ccccc3)sc3ccccc23)CC[C@@H]1NCc1ccc(O)cc1 | 5.1 µM | 20.3 µM | 12 µM |  |  |  |  |  |
| CC(=O)N[C@H]1CC[C@H](OCC#Cc2c(-c3ccccc3)oc3ccccc23)O[C@H]1C | 13.3 µM | 18.2 µM | 23.4 µM | 98.6% |  |  |  |  |
| COc1ccc(CN[C@H]2CC[C@H](OCC#Cc3c(-c4ccccc4)oc4ccccc34)O[C@H]2C)cc1 | 7.9 µM | 13.1 µM |  |  | 31% | 8% | 12% | 31% |
| C[C@@H]1O[C@@H](OCC#Cc2c(-c3ccccc3)sc3ccccc23)CC[C@@H]1NCc1ccccc1 | 19 µM | > 25 µM | > 25 µM |  |  |  |  |  |
| COc1ccc(CN[C@H]2CC[C@H](OCC#Cc3c(-c4ccccc4)sc4ccccc34)O[C@H]2C)cc1 | 6.2 µM | > 25 µM | > 25 µM |  |  |  |  |  |
| CC(C)CCN(CCC(C)C)[C@H]1CC[C@H](OCC#Cc2c(-c3ccccc3)oc3ccccc23)O[C@H]1C | > 25 µM | > 25 µM | > 25 µM |  |  |  |  |  |
| C[C@@H]1O[C@@H](OCC#Cc2c(-c3ccccc3)sc3ccccc23)CC[C@@H]1N(C)C | 3.3 µM | 10 µM | 8.2 µM |  |  |  |  |  |
| C[C@@H]1O[C@@H](OCC#Cc2c(-c3ccccc3)oc3ccccc23)CC[C@@H]1N |  |  |  | 68.5% |  | < 1% | < 1% | < 1% |
| C[C@@H]1O[C@@H](OCC#Cc2c(-c3ccccc3)oc3ccccc23)CC[C@@H]1NCc1ccc([N+](=O)[O-])cc1 | > 25 µM | > 25 µM | > 25 µM |  |  | 59% | 94% | 86% |
| C[C@@H]1O[C@@H](OCC#Cc2c(-c3ccccc3)oc3ccccc23)CC[C@@H]1NCc1ccc(O)cc1 | 5.8 µM | 13.4 µM | 10.9 µM |  |  | < 1% | < 1% | 2% |
| CC(C)CCN[C@H]1CC[C@H](OCC#Cc2c(-c3ccccc3)oc3ccccc23)O[C@H]1C | 6.6 µM | 13.6 µM | 11.3 µM |  |  |  |  |  |
| Cc1ccc(CN[C@H]2CC[C@H](OCC#Cc3c(-c4ccccc4)oc4ccccc34)O[C@H]2C)cc1 | 11.9 µM | > 25 µM | > 25 µM |  |  | 29% | 65% | 51% |
| CN[C@H]1CC[C@H](OCC#Cc2c(-c3ccccc3)sc3ccccc23)O[C@H]1C | 5.4 µM | 8.8 µM | 7.1 µM |  |  |  |  |  |
| C[C@@H]1O[C@@H](OCC#Cc2c(-c3ccccc3)oc3ccccc23)CC[C@@H]1NCc1ccccc1 | 17.9 µM | > 25 µM | > 25 µM |  |  | 31% | 87% | 72% |
| CCN[C@H]1CC[C@H](OCC#Cc2c(-c3ccccc3)oc3ccccc23)O[C@H]1C | 5.8 µM | 6 µM | 9.2 µM | 26% |  |  |  |  |

| SMILES | IC50 [1] | IC50 [2] | IC50 [3] | Activity [4] | cell viability at 25 µM [5] | viability at 25 µM [6] | viability at 25 µM [7] | viability at 25 µM [8] |
| --- | --- | --- | --- | --- | --- | --- | --- | --- |
| COc1cc(CN[C@H]2CC[C@H](OCC#Cc3c(-c4ccccc4)oc4ccccc34)O[C@H]2C)cc(OC)c1OC | 8 µM | 11.3 µM |  |  | 30% | 6% | 7% | 30% |
| CCCCN[C@H]1CC[C@H](OCC#Cc2c(-c3ccccc3)sc3ccccc23)O[C@H]1C | 7 µM | 18.6 µM | 10.2 µM |  |  |  |  |  |
| CCCCN(CCCC)[C@H]1CC[C@H](OCC#Cc2c(-c3ccccc3)sc3ccccc23)O[C@H]1C | > 25 µM | > 25 µM | > 25 µM |  |  |  |  |  |
| CCCCCCN[C@H]1CC[C@H](OCC#Cc2c(-c3ccccc3)oc3ccccc23)O[C@H]1C | 6 µM | 14.4 µM | 14.8 µM |  |  |  |  |  |
| CCN(CC)[C@H]1CC[C@H](OCC#Cc2c(-c3ccccc3)sc3ccccc23)O[C@H]1C | 3.9 µM | 11.7 µM | 12 µM |  |  |  |  |  |
| CCCCN[C@H]1CC[C@H](OCC#Cc2c(-c3ccccc3)oc3ccccc23)O[C@H]1C | 9.8 µM | 19 µM | 20.8 µM |  |  |  |  |  |
| C[C@@H]1O[C@@H](OCC#Cc2c(-c3ccccc3)oc3ccccc23)CC[C@@H]1NCC1CCCCC1 | 10.2 µM | > 25 µM | > 25 µM |  |  |  |  |  |
| CCN(CC)[C@H]1CC[C@H](OCC#Cc2c(-c3ccccc3)oc3ccccc23)O[C@H]1C | 6.8 µM | 10.7 µM | 9.7 µM |  |  |  |  |  |
| C[C@@H]1O[C@@H](OCC#Cc2c(-c3ccccc3)oc3ccccc23)CC[C@@H]1N(C)C | 6.1 µM | 6.8 µM | 10.3 µM |  |  |  |  |  |
| C[C@@H]1O[C@@H](OCC#Cc2c(-c3ccccc3)sc3ccccc23)CC[C@@H]1N(C)CC#N | 6.2 µM | 12.3 µM | 7.7 µM |  |  |  |  |  |
| CCN[C@H]1CC[C@H](OCC#Cc2c(-c3ccccc3)sc3ccccc23)O[C@H]1C | 3.4 µM | 6.6 µM | 5.9 µM |  |  |  |  |  |
| C[C@H](N)C(=O)N[C@H]1CC[C@H](OCC#Cc2c(-c3ccccc3)oc3ccccc23)O[C@H]1C | 6.8 µM | 4.1 µM | 8 µM | 52.9% |  |  |  |  |
| CC(C)N[C@H]1CC[C@H](OCC#Cc2c(-c3ccccc3)oc3ccccc23)O[C@H]1C | 5.8 µM | 13 µM | 12.6 µM | 79% |  |  |  |  |
| C[C@@H]1O[C@@H](OCC#Cc2c(-c3ccccc3)oc3ccccc23)CC[C@@H]1NCc1ccccn1 | 10.8 µM | 16.3 µM | 14.3 µM |  |  | < 1% | < 1% | 11% |
| C[C@@H]1O[C@@H](OCC#Cc2c(-c3ccccc3)oc3ccccc23)CC[C@@H]1NCc1ccc[nH]1 | 11.1 µM | 20.8 µM | 18.1 µM |  |  | < 1% | < 1% | 14% |
| C[C@@H]1O[C@@H](OCC#Cc2c(-c3ccccc3)sc3ccccc23)CC[C@@H]1NCC#N | 10.8 µM | 18 µM | 10.5 µM |  |  |  |  |  |
| C[C@@H]1O[C@@H](OCC#Cc2c(-c3ccccc3)oc3ccccc23)CC[C@@H]1NCc1ccco1 | 15.2 µM | > 25 µM | > 25 µM |  |  | 24% | 70% | 77% |

Reference: ChEMBL document CHEMBL1770050, “Effect of carbohydrate amino group modifications on the cytotoxicity of glycosylated 2-phenyl-benzo[b]thiophenes and 2-phenyl-benzo[b]furans” (Bioorg Med Chem Lett, 2011)
